Measurements as given in patent USRE47689E1, “Compounds for treating spinal muscular atrophy” (PTC Therapeutics, Inc., priority 2011, dated 2019).
Read-outs that look alike come from different tables or passages of the source.

Columns and labels:
[1] = system: SMN2 minigene (full length SMN2 minigene mRNA containing SMN2 exon 7); test: SMN2 minigene mRNA splicing RT-qPCR assay in cultured cells; format: cell-based, human; details: Homo sapiens, HEK293-H, read-out: EC1.5x for production of full length SMN2 mRNA
In short: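 Lysates → one-step RT-qPCR, minigene-specific primers (0.4 μM final) + GAPDH multiplex, 40 cycles. FL/GAPDH vs DMSO; EC1.5x, star-binned.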

[2] = system: Smn protein; test: Smn protein assay in cultured cells (SMN HTRF); format: cell-based, human; details: 48 hours; for maximum fold (Fold) increase of Smn protein: SMA patient fibroblast cells, 7-point concentration data, fold increase relative to vehicle control (SMN HTRF); for EC1.5x (concentration giving 1.5-fold Smn protein increase): SMA Type 1 patient fibroblast cells (GM03813), 7-point concentration curve, SMN HTRF, concentration producing 1.5 times Smn protein vs DMSO vehicle control, read-out: EC1.5x for Smn protein expression
In short: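 Smn in SMA fibroblast lysates, measured by anti-SMN HTRF after 48 h compound exposure; EC1.5x from fold change over vehicle.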

[3] = HEK293H cells stably transfected with SMN2-A minigene, 24 hours, 7-point concentration curve, 1.5-fold relative to vehicle-treated cells

O=c1oc2cc(N3CCNCC3)ccc2cc1-c1cccnc1C(F)(F)F [Cpd 124, 7-(piperazin-1-yl)-3-[2-(trifluoromethyl)pyridin-3-yl]-2H-chromen-2-one]
EC (1.5-fold) [1, 3]: 0.3 to 1 µM | maximum fold (Fold) increase of Smn protein [2]: ** (fold increase between >1.2 and ≤1.35) | melting point: 197 to 200 °C

Cc1cn2cc(-c3cc4ccc(N5CC[C@@H](N(C)C)C5)cc4oc3=O)cc2c(C)n1 [Compound 708, 7-[(3R)-3-(dimethylamino)pyrrolidin-1-yl]-3-(1,3-dimethylpyrrolo[1,2-a]pyrazin-7-yl)-2H-chromen-2-one]
EC (1.5-fold) [1, 3]: < 0.1 µM | maximum fold (Fold) increase of Smn protein [2]: ** (fold increase between >1.2 and ≤1.35) | melting point: 155 to 158 °C

CN1CCN(c2cc(F)c3cc(-c4cn5ccccc5n4)c(=O)oc3c2)CC1 [Compound 422, 5-fluoro-3-(imidazo[1,2-a]pyridin-2-yl)-7-(4-methylpiperazin-1-yl)-2H-chromen-2-one]
EC (1.5-fold) [1, 3]: 0.3 to 1 µM | maximum fold (Fold) increase of Smn protein [2]: ** (fold increase between >1.2 and ≤1.35) | melting point: 263 to 269 °C

O=c1oc2cc(N3CCNCC3)cc(F)c2cc1-c1nc2ccccc2s1 [Cpd 160, 3-(1,3-benzothiazol-2-yl)-5-fluoro-7-(piperazin-1-yl)-2H-chromen-2-one]
EC (1.5-fold) [1, 3]: 0.3 to 1 µM | maximum fold (Fold) increase of Smn protein [2]: * (maximum fold increase of ≤1.2) | melting point: 256 to 260 °C

Cc1cc(F)c2nc(-c3cc4ccc(N5CCN(C)[C@@H](C)C5)cc4oc3=O)cn2c1 [Compound 471, 7-[(3S)-3,4-dimethylpiperazin-1-yl]-3-(8-fluoro-6-methylimidazo[1,2-a]pyridin-2-yl)-2H-chromen-2-one]
EC (1.5-fold) [1, 3]: 0.1 to 0.3 µM | EC1.5x (concentration giving 1.5-fold Smn protein increase) [2]: 300 to 1000 nM | maximum fold (Fold) increase of Smn protein [2]: **** (fold increase between >1.5 and ≤1.65) | melting point: 270 to 277 °C

Cc1ccn2cc(-c3cc4ccc(N5CCCN(C)CC5)cc4oc3=O)nc2c1 [Compound 217, 7-(4-methyl-1,4-diazepan-1-yl)-3-(7-methylimidazo[1,2-a]pyridin-2-yl)-2H-chromen-2-one]
EC (1.5-fold) [1, 3]: 0.3 to 1 µM | maximum fold (Fold) increase of Smn protein [2]: *** (fold increase between >1.35 and ≤1.5) | melting point: 200 to 206 °C

C[C@@H]1CN(c2ccc3cc(-c4ccc5c(c4)OCCO5)c(=O)oc3c2)C[C@H](C)N1 [Compound 514, 3-(2,3-dihydro-1,4-benzodioxin-6-yl)-7-[(3R,5S)-3,5-dimethylpiperazin-1-yl]-2H-chromen-2-one]
EC (1.5-fold) [1, 3]: 3 to 30 µM | maximum fold (Fold) increase of Smn protein [2]: * (maximum fold increase of ≤1.2) | melting point: 138 to 140 °C

CCNCCOc1ccc2cc(-c3cn4cc(C)nc(C)c4n3)c(=O)oc2c1 [Compound 930, 3-(6,8-dimethylimidazo[1,2-a]pyrazin-2-yl)-7-[2-(ethylamino)ethoxy]-2H-chromen-2-one]
EC (1.5-fold) [1, 3]: < 0.1 µM | EC1.5x (concentration giving 1.5-fold Smn protein increase) [2]: < 300 nM | maximum fold (Fold) increase of Smn protein [2]: ***** (fold increase >1.65) | melting point: 189 to 193 °C

Cc1cn2cc(-c3cc4ccc(CCCN5CCC[C@@H]5CO)cc4oc3=O)nc2c(C)n1 [Compound 883, 3-(6,8-dimethylimidazo[1,2-a]pyrazin-2-yl)-7-{3-[(2R)-2-(hydroxymethyl)pyrrolidin-1-yl]propyl}-2H-chromen-2-one]
EC (1.5-fold) [1, 3]: < 0.1 µM | EC1.5x (concentration giving 1.5-fold Smn protein increase) [2]: < 300 nM | maximum fold (Fold) increase of Smn protein [2]: ***** (fold increase >1.65) | melting point: 182 to 185 °C

Cc1cc(F)c2nc(-c3cc4ccc(N5C[C@@H](C)N[C@@H](C)C5)cc4oc3=O)cn2c1 [Compound 354, 7-[(3R,5S)-3,5-dimethylpiperazin-1-yl]-3-(8-fluoro-6-methylimidazo[1,2-a]pyridin-2-yl)-2H-chromen-2-one]
EC (1.5-fold) [1, 3]: < 0.1 µM | EC1.5x (concentration giving 1.5-fold Smn protein increase) [2]: 1000 to 3000 nM | maximum fold (Fold) increase of Smn protein [2]: *** (fold increase between >1.35 and ≤1.5) | melting point: 268 to 275 °C

Cc1ccn2cc(-c3cc4ccc(NCCN(C)C)cc4oc3=O)nc2c1 [Compound 470, 7-{[2-(dimethylamino)ethyl]amino}-3-(7-methylimidazo[1,2-a]pyridin-2-yl)-2H-chromen-2-one]
EC (1.5-fold) [1, 3]: 1 to 3 µM | maximum fold (Fold) increase of Smn protein [2]: * (maximum fold increase of ≤1.2) | melting point: 156 to 159 °C

Cc1cccc(-c2cc3ccc(N4CCN[C@@H](C)C4)cc3oc2=O)c1 [Compound 512, 3-(3-methylphenyl)-7-[(3S)-3-methylpiperazin-1-yl]-2H-chromen-2-one]
EC (1.5-fold) [1, 3]: 1 to 3 µM | maximum fold (Fold) increase of Smn protein [2]: * (maximum fold increase of ≤1.2) | melting point: 101 to 103 °C

C[C@H]1CN(c2ccc3cc(-c4cn5cc(Cl)cnc5n4)c(=O)oc3c2)CCN1 [Compound 376, 3-(6-chloroimidazo[1,2-a]pyrimidin-2-yl)-7-[(3S)-3-methylpiperazin-1-yl]-2H-chromen-2-one]
EC (1.5-fold) [1, 3]: 1 to 3 µM | maximum fold (Fold) increase of Smn protein [2]: * (maximum fold increase of ≤1.2) | melting point: 260 to 262 °C

Cc1cn2cc(-c3cc4ccc(CNC(C)C)cc4oc3=O)nc2c(C)n1 [Compound 850, 3-(6,8-dimethylimidazo[1,2-a]pyrazin-2-yl)-7-[(propan-2-ylamino)methyl]-2H-chromen-2-one]
EC (1.5-fold) [1, 3]: 0.3 to 1 µM | maximum fold (Fold) increase of Smn protein [2]: ** (fold increase between >1.2 and ≤1.35) | melting point: 285 to 291 °C

CCCN1CCN(c2ccc3cc(-c4cn5cccc(C)c5n4)c(=O)oc3c2)CC1 [Compound 101, 3-(8-methylimidazo[1,2-a]pyridin-2-yl)-7-(4-propylpiperazin-1-yl)-2H-chromen-2-one]
EC (1.5-fold) [1, 3]: 1 to 3 µM | maximum fold (Fold) increase of Smn protein [2]: ** (fold increase between >1.2 and ≤1.35) | melting point: 249 to 251 °C

Cc1cn2cc(-c3cc4ccc(N5CCN(C)[C@H](C)C5)cc4oc3=O)nc2cn1 [Compound 628, 7-[(3R)-3,4-dimethylpiperazin-1-yl]-3-(6-methylimidazo[1,2-a]pyrazin-2-yl)-2H-chromen-2-one]
EC (1.5-fold) [1, 3]: < 0.1 µM | EC1.5x (concentration giving 1.5-fold Smn protein increase) [2]: < 300 nM | maximum fold (Fold) increase of Smn protein [2]: **** (fold increase between >1.5 and ≤1.65) | melting point: 256 to 258 °C

CN(C)CCN(C)c1ccc2cc(-c3nc4ccccc4s3)c(=O)oc2c1 [Compound 146, 3-(1,3-benzothiazol-2-yl)-7-{[2-(dimethylamino)ethyl](methyl)amino}-2H-chromen-2-one]
EC (1.5-fold) [1, 3]: 0.3 to 1 µM | maximum fold (Fold) increase of Smn protein [2]: * (maximum fold increase of ≤1.2) | melting point: 155 to 157 °C

Cc1c[nH]nc1-c1cc2ccc(N3CCNCC3)cc2oc1=O [Cpd 80, 3-(4-methyl-1H-pyrazol-3-yl)-7-(piperazin-1-yl)-2H-chromen-2-one]
EC (1.5-fold) ([1]; 24 h): 3 to 30 µM | maximum fold (Fold) increase of Smn protein [2]: ** (fold increase between >1.2 and ≤1.35) | melting point: 175 to 200 °C (dec.)

Cc1cn2cc(-c3cc4ccc(C5CCNCC5)cc4oc3=O)cnc2n1 [Compound 834, 3-(2-methylimidazo[1,2-a]pyrimidin-6-yl)-7-(piperidin-4-yl)-2H-chromen-2-one]
EC (1.5-fold) [1, 3]: < 0.1 µM | EC1.5x (concentration giving 1.5-fold Smn protein increase) [2]: < 300 nM | maximum fold (Fold) increase of Smn protein [2]: ***** (fold increase >1.65) | melting point: 280 to 281 °C
